Laboratory results: ChEMBL document CHEMBL1201862, “PubChem BioAssay data set” (2004)
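Growth conditions: 96-well plates. Treatment: test compound, 48 hours, 5 concentrations. Analysis: linear interpolation between bracketing concentrations; unreached endpoints set to highest concentration. At the GI50, growth is halved.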 Calls of active or inactive are those of the source. Cut-off read from the data, not from the text of the source: active = GI50 up to about 1.1 µM and inactive = higher.

Key:
Experiment in all cases: NCI-60 cell line screen, 48 h
MOLT-4 = test system: MOLT-4
LOX IMVI = test system: LOX IMVI
HT-29 = test system: HT-29
MDA-MB-435 = test system: MDA-MB-435
Hs-578T = test system: Hs-578T
NCI-H226 = test system: NCI-H226
OVCAR-5 = test system: OVCAR-5
CAKI-1 = test system: CAKI-1
SK-OV-3 = test system: SK-OV-3
SNB-75 = test system: SNB-75
U-251 = test system: U-251
OVCAR-3 = test system: OVCAR-3
SF-539 = test system: SF-539
MCF7 = test system: MCF7
DU-145 = test system: DU-145
SNB-19 = test system: SNB-19
BT-549 = test system: BT-549
CCRF-CEM = test system: CCRF-CEM
SK-MEL-5 = test system: SK-MEL-5
SR = test system: SR
Malme-3M = test system: Malme-3M
SW-620 = test system: SW-620
RXF 393 = test system: RXF 393
SF-268 = test system: SF-268
NCI-H23 = test system: NCI-H23
OVCAR-8 = test system: OVCAR-8
OVCAR-4 = test system: OVCAR-4
M14 = test system: M14
HCC 2998 = test system: HCC 2998
MDA-N = test system: MDA-N
SK-MEL-2 = test system: SK-MEL-2
PC-3 = test system: PC-3
UO-31 = test system: UO-31
SF-295 = test system: SF-295
TK-10 = test system: TK-10
UACC-62 = test system: UACC-62
IGROV-1 = test system: IGROV-1
KM12 = test system: KM12
HOP-62 = test system: HOP-62
SN12C = test system: SN12C
RPMI-8226 = test system: RPMI-8226
A549 = test system: A549
MDA-MB-231 = test system: MDA-MB-231
HOP-92 = test system: HOP-92
HCT-116 = test system: HCT-116
NCI/ADR-RES = test system: NCI/ADR-RES
786-0 = test system: 786-0
UACC-257 = test system: UACC-257
K562 = test system: K562
HL-60 = test system: HL-60
HCT-15 = test system: HCT-15
ACHN = test system: ACHN
T47D = test system: T47D
COLO 205 = test system: COLO 205
EKVX = test system: EKVX
SK-MEL-28 = test system: SK-MEL-28
NCI-H522 = test system: NCI-H522
NCI-H460 = test system: NCI-H460

## CC12CCC(C(=O)n3c1nc1ccccc13)C(C)(C)O2 (stereo not given)
MOLT-4
  GI50: > 100 µM (inactive)
LOX IMVI
  GI50: > 100 µM (inactive)
HT-29
  GI50: > 100 µM (inactive)
MDA-MB-435
  GI50: > 100 µM (inactive)
Hs-578T
  GI50: 16.3 µM (inactive)
NCI-H226
  GI50: > 100 µM (inactive)
OVCAR-5
  GI50: > 100 µM (inactive)
CAKI-1
  GI50: > 100 µM (inactive)
SK-OV-3
  GI50: > 100 µM (inactive)
SNB-75
  GI50: 15.6 µM (inactive)
U-251
  GI50: > 100 µM (inactive)
OVCAR-3
  GI50: > 100 µM (inactive)
SF-539
  GI50: > 100 µM (inactive)
MCF7
  GI50: > 100 µM (inactive)
DU-145
  GI50: > 100 µM (inactive)
SNB-19
  GI50: > 100 µM (inactive)
BT-549
  GI50: > 100 µM (inactive)
CCRF-CEM
  GI50: > 100 µM (inactive)
SK-MEL-5
  GI50: 49 µM (inactive)
SR
  GI50: > 100 µM (inactive)
Malme-3M
  GI50: > 100 µM (inactive)
SW-620
  GI50: > 100 µM (inactive)
RXF 393
  GI50: > 100 µM (inactive)
SF-268
  GI50: > 100 µM (inactive)
NCI-H23
  GI50: > 100 µM (inactive)
OVCAR-8
  GI50: > 100 µM (inactive)
OVCAR-4
  GI50: > 100 µM (inactive)
M14
  GI50: > 100 µM (inactive)
HCC 2998
  GI50: > 100 µM (inactive)
MDA-N
  GI50: > 100 µM (inactive)
SK-MEL-2
  GI50: > 100 µM (inactive)
PC-3
  GI50: > 100 µM (inactive)
UO-31
  GI50: 75.3 µM (inactive)
SF-295
  GI50: > 100 µM (inactive)
TK-10
  GI50: > 100 µM (inactive)
UACC-62
  GI50: > 100 µM (inactive)
IGROV-1
  GI50: > 100 µM (inactive)
KM12
  GI50: > 100 µM (inactive)
HOP-62
  GI50: > 100 µM (inactive)
SN12C
  GI50: > 100 µM (inactive)
RPMI-8226
  GI50: > 100 µM (inactive)
A549
  GI50: > 100 µM (inactive)
MDA-MB-231
  GI50: > 100 µM (inactive)
HOP-92
  GI50: > 100 µM (inactive)
HCT-116
  GI50: > 100 µM (inactive)
NCI/ADR-RES
  GI50: > 100 µM (inactive)
786-0
  GI50: > 100 µM (inactive)
UACC-257
  GI50: > 100 µM (inactive)
K562
  GI50: > 100 µM (inactive)
HL-60
  GI50: > 100 µM (inactive)
HCT-15
  GI50: > 100 µM
ACHN
  GI50: > 100 µM (inactive)
T47D
  GI50: > 100 µM (inactive)
COLO 205
  GI50: > 100 µM (inactive)
EKVX
  GI50: > 100 µM (inactive)
SK-MEL-28
  GI50: > 100 µM (inactive)
NCI-H522
  GI50: 47.6 µM (inactive)

## O=S(=O)(/N=S(/Nc1ccccc1)C(Cl)Cl)c1ccccc1 (stereo not given)
MOLT-4
  GI50: > 100 µM (inactive)
LOX IMVI
  GI50: > 100 µM (inactive)
HT-29
  GI50: > 100 µM (inactive)
MDA-MB-435
  GI50: > 100 µM (inactive)
Hs-578T
  GI50: > 100 µM (inactive)
NCI-H226
  GI50: > 100 µM (inactive)
OVCAR-5
  GI50: > 100 µM (inactive)
SK-OV-3
  GI50: > 100 µM (inactive)
SNB-75
  GI50: > 100 µM (inactive)
U-251
  GI50: > 100 µM (inactive)
OVCAR-3
  GI50: > 100 µM (inactive)
SF-539
  GI50: > 100 µM (inactive)
MCF7
  GI50: > 100 µM (inactive)
DU-145
  GI50: > 100 µM (inactive)
SNB-19
  GI50: > 100 µM (inactive)
NCI-H460
  GI50: > 100 µM (inactive)
BT-549
  GI50: > 100 µM (inactive)
CCRF-CEM
  GI50: > 100 µM (inactive)
Malme-3M
  GI50: > 100 µM (inactive)
SW-620
  GI50: > 100 µM (inactive)
RXF 393
  GI50: > 100 µM (inactive)
SF-268
  GI50: > 100 µM (inactive)
NCI-H23
  GI50: > 100 µM (inactive)
OVCAR-8
  GI50: > 100 µM (inactive)
OVCAR-4
  GI50: > 100 µM (inactive)
M14
  GI50: > 100 µM (inactive)
MDA-N
  GI50: > 100 µM (inactive)
SK-MEL-2
  GI50: > 100 µM (inactive)
PC-3
  GI50: > 100 µM (inactive)
UO-31
  GI50: > 100 µM (inactive)
SF-295
  GI50: > 100 µM (inactive)
TK-10
  GI50: > 100 µM (inactive)
UACC-62
  GI50: > 100 µM (inactive)
IGROV-1
  GI50: > 100 µM (inactive)
KM12
  GI50: > 100 µM (inactive)
HOP-62
  GI50: > 100 µM (inactive)
SN12C
  GI50: > 100 µM (inactive)
RPMI-8226
  GI50: > 100 µM (inactive)
A549
  GI50: > 100 µM (inactive)
MDA-MB-231
  GI50: > 100 µM (inactive)
HOP-92
  GI50: > 100 µM (inactive)
HCT-116
  GI50: > 100 µM (inactive)
NCI/ADR-RES
  GI50: > 100 µM (inactive)
786-0
  GI50: > 100 µM (inactive)
UACC-257
  GI50: > 100 µM (inactive)
K562
  GI50: > 100 µM (inactive)
HL-60
  GI50: > 100 µM (inactive)
HCT-15
  GI50: > 100 µM
ACHN
  GI50: > 100 µM (inactive)
T47D
  GI50: > 100 µM (inactive)
COLO 205
  GI50: > 100 µM (inactive)
EKVX
  GI50: > 100 µM (inactive)
SK-MEL-28
  GI50: > 100 µM (inactive)
